In article PMC5131915, “Platinum(II) Iodido Complexes of 7-Azaindoles with Significant Antiproliferative Effects: An Old Story Revisited with Unexpected Outcomes” (PLoS ONE, 2016):
Where two headings read alike, the source gives them in different places.

What was measured:
[1] = tested on: calf thymus DNA (ctDNA); experiment: Fluorescence quenching experiments on the EtBr/ctDNA system; type: binding; settings: for Stern-Volmer quenching constant KSV: TRIS/NaCl buffer pH 7.2; for apparent binding constant Kapp: estimated from Q50
Description: A volume of 405 μL of 154 μM ctDNA and 10 μL of 3 mM EtBr were mixed together in TRIS/NaCl buffer (pH = 7.2) and incubated for 30 min at ambient temperature. […] The mixtures were incubated at ambient temperature for next 15 min. The maxima of the emitted fluorescence of EtBr/ctDNA system have been observed at 613 nm (using the 546 nm excitation wavelength) and the intensity of fluorescence was recorded on a AvaSpec HS1024x122TE fluorescence spectrometer using a 1 cm quartz cell. […] Due to the indirect nature of the fluorescence quenching method, the value of KSV can be used for the estimation of the apparent binding constant Kapp of the complex by using the equation KEB [EtBr] = Kapp [Q50], where [Q50] is the concentration of the complex causing the 50% reduction in the intensity of fluorescence of the EtBr/DNA supramolecular complex, KEB = 1.0 × 10^6 M^−1 and [EtBr] = 10 μM [27].

[2] = tested on: A549 lung carcinoma cells; experiment: In vitro cytotoxicity testing (MTT assay), A549; type: cell-based, human; settings: 24 h drug exposure, no recovery, read-out: IC50±SD, A549
Description: (§1) A2780 ovarian carcinoma, A2780R cisplatin-resistant ovarian carcinoma, HOS osteosarcoma, G361 malignant melanoma, MCF7 breast carcinoma, A549 lung carcinoma, HeLa cervix carcinoma, 22Rv1 prostate carcinoma and Caco-2 colorectal carcinoma human cancer cell lines were purchased from the European Collection of Cell Cultures (ECACC), while the human non-cancerous hepatocytes (Hep) were supplied by Biopredic Intl. The cell lines were cultured, according to the suppliers`instructions, in RPMI-1640 medium supplemented with 10% of fetal calf serum, 1% of 2 mM glutamine, and 1% penicillin/streptomycin. All cell lines were grown as adherent monolayers at 37°C and 5% CO2 in a humidified atmosphere.
(§2) The cells were seeded to 96-well culture plates, pre-incubated in drug-free media at 37°C for 24 h and treated typically with the 0.01–50.0 μM solutions, prepared from the stock solutions by dilution with medium, for 24 h at 37°C. […] In parallel with compounds 1–8 and the reference drugs, the cells were also treated with vehicle (0.1% DMF in medium; negative control) and Triton X-100 (1%; positive control) to assess the minimal and maximal cell damage, respectively. The MTT assay was used to determine the cell viability; MTT = 3-(4,5-dimethylthiazol-2-yl)-2,5-diphenyltetrazolium bromide. A concentration of the formed dye was evaluated spectrophotometrically at 540 nm (TECAN, Schoeller Instruments LLC).
(§3) The data were expressed as the percentage of viability, where 100% and 0% represents the treatments with negative and positive controls, respectively. The data from the cancer cells were acquired from three independent experiments (conducted in triplicate) using cells from different passages. The resulting IC50 values (μM) were calculated from viability curves and the results are presented as arithmetic mean±SD.

[3] = tested on: A2780 cells; experiment: Cellular accumulation of platinum (ICP-MS); type: cell-based, human; settings: 24 h treatment at IC50 concentration
Description: The A2780 cells were seeded in 6-well culture plates (1×10^6 cells per well) and incubated overnight (37°C and 5% CO2 in a humidified incubator). […] The cells were washed with PBS (2 × 2 mL) after 24 h treatment, harvested by trypsin treatment, collected and centrifuged in PBS. The supernatants were discarded after centrifugation and pellets were digested in 500 μL of nitric acid (3 min at 150°C) using a microwave system Monowave300 (Anton Paar). Solutions were diluted with 4.5 mL of water and the platinum content was determined by ICP-MS. The obtained values were corrected for adsorption effects. The experiments were conducted in triplicate and the results are presented as arithmetic mean±SD.

[4] = tested on: MCF7 breast carcinoma cells; experiment: In vitro cytotoxicity testing (MTT assay), MCF7; type: cell-based, human; settings: 24 h drug exposure, no recovery, read-out: IC50±SD, MCF7
Description: as §1, §2, §3

[5] = tested on: caspase 3 (Cas-3), active form p17; experiment: Ex vivo Western blot of tumour tissues, cleaved caspase 3; type: in vivo, mice; settings: pooled tumour samples
Description: Frozen tumour samples were homogenized by a bench blender IKA DI25 (IKA-Werke, Germany) in the presence of a lysis buffer [cOmplete Protease Inhibitor Cocktail (Roche, Germany), 50 mM Tris-HCl pH 7.5, 1 mM EGTA, 1 mM EDTA, 1 mM sodium orthovanadate, 50 mM sodium fluoride, 5 mM sodium pyrophosphate, 270 mM sucrose, 0.5% (v/v) Triton X-100]. Subsequently, the blended samples were centrifuged at 9.000 g at 4°C for 15 min. The supernatants were collected and the protein concentration was measured by the Brandford’s method using the Brandford reagent (Amresco, USA) according to the manufacturer’s manual. The measured samples were stored at -80°C for the following experiments.
The expression of caspase 3, MCL-1, p53, and β-actin as loading control were evaluated by Western blot analysis and immunodetection. Lysates were mixed with a denaturing loading dye [250 mM Tris-HCl pH 6.8, 5% (v/v) β-mercaptoethanol, 10% (w/v) sodium dodecyl sulfate, 30% (v/v) glycerol, 0.04% (w/v) bromophenol blue], heated for 5 min at 70°C. […] The final protein amount was 50 μg per well. After protein separation in the gel, they were transferred on the Immun-Blot polyvinylidene difluoride membrane 0.2 μm (Bio-Rad, USA). Then, the membrane was blocked by 5% (w/v) BSA in TBST [10 mM Tris-HCl pH 7.5, 150 mM NaCl, 0.1% (v/v) Tween-20]. […] HRP was detected by Clarity Western ECL Substrate (Bio-Rad, USA) using chemiluminescent documentation system Syngene PXi-4 (UK).

[6] = tested on: spleen, renal tissue and tumour tissues of L1210 leukaemia-bearing mice; experiment: Histological observations (light microscopy, semi-quantitative); settings: relative scale 0 to 4
Description: Randomly selected paraffin block preparations were stained by standard hematoxylin and eosin stain for light microscopic evaluation. Due to high cellularity, the semi-quantitative method was used for the evaluation of necrosis in well-circumcised and diffuse tumour samples and PMN cells infiltration in normal tissues as an indirect sign of toxicity to healthy tissues. The evaluation of necrotic processes and infiltration by PMN cells was semi-quantitative, based on the percentage of necrotic areas and/or infiltrated area in the view-field of at least three different samples.

[7] = tested on: A2780 ovarian carcinoma cells; experiment: In vitro cytotoxicity testing (MTT assay), A2780; type: cell-based, human
Description: All cell lines were grown as adherent monolayers at 37°C and 5% CO2 in a humidified atmosphere.
The MTT assay was used to determine the cell viability; MTT = 3-(4,5-dimethylthiazol-2-yl)-2,5-diphenyltetrazolium bromide. A concentration of the formed dye was evaluated spectrophotometrically at 540 nm (TECAN, Schoeller Instruments LLC).
as §3

[8] = 24 h drug exposure, no recovery, MTT, read-out: IC50±SD, A2780

Structure (SMILES)	Stern-Volmer quenching constant KSV [1]	apparent binding constant Kapp [1]	IC50 [2] [µM]	cellular accumulation [3] [pmol Pt/10^6 A2780 cells]	IC50 [4] [µM]	level of active form of Cas-3 in tumour tissue [5]	Areas of necrosis in tumour tissues [6]	Infiltration of renal tissues (PMN cells) [6]	Infiltration of spleen (PMN cells) [6]	IC50 ([7]; 6 h exposure, read-out: IC50, A2780, time-dependent cytotoxicity) [µM]	IC50 [7, 8] [µM]	IC50 ([7]; 48 h exposure, read-out: IC50, A2780, time-dependent cytotoxicity) [µM]
N.N.[Cl][Pt][Cl] [Cisplatin, cisplatin, reference compound]	4.7 × 10^3 M^–1	4.8 × 10^4 M^–1	> 50	535±16	17.9 ± 3.5	has not been observed	3 (3 = up to 75%)	1 (1 = up to 25%)	1 (1 = up to 25%)			
Brc1cc[n+]([Pt-2]([I])([I])[n+]2ccc(Br)c3cc[nH]c32)c2[nH]ccc12 [Complex 6, cis-[Pt(4Braza)2I2]]	7.4 × 10^3 M^–1	7.8 × 10^4 M^–1	4.3 ± 0.9	598±97	1 ± 0.4	has not been observed	1–2	1 (1 = up to 25%)	2 (2 = up to 50%)	8.2 ± 0.5	3.2 ± 0.2	0.4 ± 0.1
Cc1cc2c(Cl)cc[n+]([Pt-2]([I])([I])[n+]3ccc(Cl)c4cc(C)[nH]c43)c2[nH]1 [Complex 8, cis-[PtI2(2Me4Claza)2]]	1.4 × 10^4 M^–1	1.2 × 10^5 M^–1	3.5 ± 0.2		2.1 ± 1	dramatically increased	3 (3 = up to 75%)	0–1	1–2		1.7 ± 0.3	
